ChEMBL document CHEMBL1201862, “PubChem BioAssay data set” (2004)
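Values below derive from 48-hour exposures of cells grown in 96-well plates, with endpoints linearly interpolated between the two concentrations bracketing the appropriate inhibition level. GI50: concentration for 50% inhibition of growth.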 Activity calls are given as the source filed them. Rule as the data show it: active = GI50 up to about 1.1 µM and inactive = higher.

Tests used:
Assay in all cases: inhibition of tumour cell growth, NCI panel, 48 h
[1] = test system: A498
[2] = test system: COLO 205
[3] = test system: DMS-114
[4] = test system: DMS-273
[5] = test system: HL-60
[6] = test system: HOP-18
[7] = test system: M19-MEL
[8] = test system: NCI-H226
[9] = test system: NCI-H460
[10] = test system: NCI-H522
[11] = test system: RPMI-8226
[12] = test system: SK-MEL-28
[13] = test system: SNB-78
[14] = test system: U-251
[15] = test system: XF498
[16] = test system: 786-0
[17] = test system: DU-145
[18] = test system: M14
[19] = test system: MDA-N
[20] = test system: PC-3

Measured: GI50

CC(C)[C@](O)(C(=O)OCC1CC[N+]2([O-])CC[C@@H](O)C12)[C@H](C)O (stereo partly specified)
inactive: [1] > 59.4 µM | [2] > 375 µM | [3] > 375 µM | [4] > 375 µM | [5] > 375 µM | [6] 105 µM | [7] > 375 µM | [8] > 375 µM | [9] > 122 µM | [10] > 375 µM | [11] > 375 µM | [12] > 375 µM | [13] > 375 µM | [14] > 375 µM | [15] > 375 µM

CCOC(=O)CN1CCS/C1=N/C#N
inactive: [1] > 100 µM | [2] > 100 µM | [3] > 100 µM | [4] > 100 µM | [5] > 100 µM | [6] > 100 µM | [7] > 100 µM | [8] > 100 µM | [9] > 31.6 µM | [10] > 100 µM | [11] > 100 µM | [12] > 100 µM | [13] > 100 µM | [14] > 100 µM | [15] > 100 µM

COc1ccc2c(c1)c1c(n2CCN2CCCCC2)-c2cccc(OC)c2CC1
inactive: [16] 20.2 µM | [1] 20.1 µM | [2] 16.7 µM | [17] 32 µM | [18] 12 µM | [19] 16.2 µM | [8] 10 µM | [9] 19.9 µM | [10] 3.82 µM | [20] 12.7 µM | [11] 11.5 µM | [12] 15.4 µM | [14] 13.1 µM

Oc1nc2c(c(-c3ccccc3Cl)n1)COC/C2=C\c1ccccc1Cl
inactive: [16] > 100 µM | [1] > 100 µM | [2] > 100 µM | [17] > 100 µM | [5] 71.4 µM | [18] > 100 µM | [19] > 100 µM | [8] > 100 µM | [9] > 100 µM | [20] > 100 µM | [11] > 100 µM | [12] > 100 µM | [14] > 100 µM

CSCCC(NOC(=O)Cc1ccccc1)P(=O)(O)c1ccccc1 (stereo unspecified)
inactive: [2] > 100 µM | [17] > 100 µM | [5] > 100 µM | [18] > 100 µM | [19] > 100 µM | [8] > 100 µM | [9] > 100 µM | [10] > 100 µM | [20] > 100 µM | [11] > 100 µM | [12] > 100 µM | [14] > 100 µM

Nc1nc(=O)[nH]cc1F [FLUCYTOSINE]
inactive: [16] > 100 µM | [1] > 100 µM | [2] > 100 µM | [17] > 100 µM | [5] > 100 µM | [18] > 100 µM | [19] > 100 µM | [8] > 100 µM | [9] > 100 µM | [10] > 100 µM | [20] > 100 µM | [11] > 100 µM | [12] > 100 µM | [14] 32.7 µM

O=NN(CCCl)C(=O)Nc1ccc(Cl)c(Cl)c1
inactive: [1] > 83.8 µM | [2] > 100 µM | [3] 6.67 µM | [4] 72.8 µM | [5] > 100 µM | [7] 69.5 µM | [8] 46.6 µM | [9] 56.8 µM | [10] 28.3 µM | [11] 50 µM | [12] > 100 µM | [13] > 56.9 µM | [14] 52 µM | [15] 72.8 µM

COC1CCC(CO)OO1 (stereo unspecified)
inactive: [1] 13.1 µM | [2] 53.6 µM | [3] 15.3 µM | [5] 18.4 µM | [18] 47.9 µM | [7] 60.4 µM | [9] 24.7 µM | [10] 12.9 µM | [11] 19.1 µM | [12] 52 µM | [13] 15.9 µM | [14] 4.57 µM

CC(=O)NC(CCCCNC(=O)OC(C)(C)C)C(=O)O (stereo unspecified)
inactive: [1] 26.1 µM | [2] > 100 µM | [17] > 100 µM | [5] > 100 µM | [18] > 100 µM | [19] > 100 µM | [9] > 100 µM | [10] > 100 µM | [20] > 100 µM | [11] > 100 µM | [12] > 100 µM | [14] > 100 µM

COc1ccc(NC(=S)NNC(=O)c2nsc3ccccc23)cc1
inactive: [2] 43.9 µM | [3] 32.1 µM | [4] 26.1 µM | [5] 19.9 µM | [18] 17.8 µM | [7] 33 µM | [9] 33.5 µM | [11] 22.3 µM | [12] 34.3 µM | [13] 41.7 µM | [14] 40.8 µM
